According to patent publication US8946197B2, “Transglutaminase TG2 inhibitors, pharmaceutical compositions, and methods of use thereof” (CHDI Foundation, Inc., priority 2009, dated 2015):
“And” between values parts separate entries of the source, which are not always exact repeats. Equal values may be shown once.

Target: T1, human TG2 (Homo sapiens, UniProt P21980)
T1 sequence (P21980 1-687): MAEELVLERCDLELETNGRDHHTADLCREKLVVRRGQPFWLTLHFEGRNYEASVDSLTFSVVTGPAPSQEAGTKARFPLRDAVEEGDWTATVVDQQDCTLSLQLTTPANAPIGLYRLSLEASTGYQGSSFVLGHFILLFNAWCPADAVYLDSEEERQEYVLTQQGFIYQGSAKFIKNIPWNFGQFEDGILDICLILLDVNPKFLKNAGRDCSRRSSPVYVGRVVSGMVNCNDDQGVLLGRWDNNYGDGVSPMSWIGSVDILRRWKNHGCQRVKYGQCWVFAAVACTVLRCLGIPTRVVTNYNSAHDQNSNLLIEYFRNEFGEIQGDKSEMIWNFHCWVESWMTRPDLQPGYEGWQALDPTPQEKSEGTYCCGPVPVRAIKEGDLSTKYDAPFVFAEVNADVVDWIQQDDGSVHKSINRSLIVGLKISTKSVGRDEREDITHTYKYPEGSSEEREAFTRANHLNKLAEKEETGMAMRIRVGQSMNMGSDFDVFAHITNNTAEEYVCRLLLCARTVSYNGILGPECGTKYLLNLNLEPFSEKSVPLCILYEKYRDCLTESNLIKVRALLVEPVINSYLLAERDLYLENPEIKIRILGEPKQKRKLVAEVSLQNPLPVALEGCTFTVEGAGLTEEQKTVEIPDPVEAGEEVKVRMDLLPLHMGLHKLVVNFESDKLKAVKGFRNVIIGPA
Experiment: fluorescent screening assay for human TG2
Format: biochemical
Settings: 20 nM TG2, 8 μM N,N-dimethylated Casein, 16 μM KxD, pH 7.4, 37° C
Procedure, shortened: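 20 nM TG2 with 8 μM N,N-dimethylated casein and 16 μM K×D in 25 mM Hepes pH 7.4, 250 mM NaCl, 2 mM MgCl2, 0.5 mM CaCl2, 0.2 mM DTT, 0.05% Pluronic F-127 at 37° C. Fluorescence (ex 350, em 535 nm) was read every 3 min for up to 2 h. Initial linear velocity served as activity.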

IC50	SMILES
1 to 25 µM	C=CC(=O)Nc1cccc(S(=O)(=O)N2CCN(CCCc3ccccc3)CC2)c1 [N-{3-[4-(3-Phenyl-propyl)-piperazine-1-sulfonyl]-phenyl}-acrylamide]
1 to 25 µM	C=CC(=O)Nc1cccc(S(=O)(=O)N2CCN(CCCCc3ccccc3)CC2)c1 [N-{3-[4-(4-Phenyl-butyl)-piperazine-1-sulfonyl]-phenyl}-acrylamide]
1 to 25 µM	C=CC(=O)Nc1ccc(S(=O)(=O)N2CCCC2c2ccc(C(F)(F)F)cc2)cc1 (stereo not shown) [N-{4-[2-(4-Trifluoromethyl-phenyl)-pyrrolidine-1-sulfonyl]-phenyl}-acrylamide]
1 to 25 µM	C=CC(=O)Nc1ccc(S(=O)(=O)N2CCNC(c3ccc(C)o3)C2)cc1 (stereo not shown) [N-{4-[3-(5-Methyl-furan-2-yl)-piperazine-1-sulfonyl]-phenyl}-acrylamide]
0.1 to 1 µM and < 0.1 µM	C=CC(=O)Nc1ccc(S(=O)(=O)N2CCN(C(=O)N3C[C@@H](C)O[C@@H](C)C3)CC2)cc1 [N-{4-[4-(2,6-Dimethyl-morpholine-4-carbonyl)-piperazine-1-sulfonyl]-phenyl}-acrylamide]
< 0.1 µM and 0.1 to 1 µM	C=CC(=O)Nc1ccc(S(=O)(=O)N2CCN(c3ccnc(Cl)n3)CC2)cc1 [N-{4-[4-(2-Chloro-pyrimidin-4-yl)-piperazine-1-sulfonyl]-phenyl}-acrylamide]
< 0.1 µM and 0.1 to 1 µM	C=CC(=O)Nc1ccc(S(=O)(=O)N2CCN(c3cccc4nc(C)ccc34)CC2)cc1 [N-{4-[4-(2-Methyl-quinolin-5-yl)-piperazine-1-sulfonyl]-phenyl}-acrylamide]
0.1 to 1 µM and < 0.1 µM	C=CC(=O)Nc1ccc(S(=O)(=O)N2CCN(C(=O)Cc3ccc4ccccc4c3)CC2)cc1 [N-{4-[4-(2-Naphthalen-2-yl-acetyl)-piperazine-1-sulfonyl]-phenyl}-acrylamide]
0.1 to 1 µM and < 0.1 µM	C=CC(=O)Nc1ccc(S(=O)(=O)N2CCN(C(=O)C3CC3c3ccccc3)CC2)cc1 (stereo not shown) [N-{4-[4-(2-Phenyl-cyclopropanecarbonyl)-piperazine-1-sulfonyl]-phenyl}-acrylamide]
0.1 to 1 µM and < 0.1 µM	C=CC(=O)Nc1ccc(S(=O)(=O)N2CCN(c3ncccc3C)CC2)cc1 [N-{4-[4-(3-Methyl-pyridin-2-yl)-piperazine-1-sulfonyl]-phenyl}-acrylamide]
0.1 to 1 µM and < 0.1 µM	C=CC(=O)Nc1ccc(S(=O)(=O)N2CCN(C(=O)CCc3ccccn3)CC2)cc1 [N-{4-[4-(3-Pyridin-2-yl-propionyl)-piperazine-1-sulfonyl]-phenyl}-acrylamide]
0.1 to 1 µM and < 0.1 µM	C=CC(=O)Nc1ccc(S(=O)(=O)N2CCN(c3ncccc3C(F)(F)F)CC2)cc1 [N-{4-[4-(3-Trifluoromethyl-pyridin-2-yl)-piperazine-1-sulfonyl]-phenyl}-acrylamide]
0.1 to 1 µM and < 0.1 µM	C=CC(=O)Nc1ccc(S(=O)(=O)N2CCN(C(=O)N3CCC(F)(F)CC3)CC2)cc1 [N-{4-[4-(4,4-Difluoro-piperidine-1-carbonyl)-piperazine-1-sulfonyl]-phenyl}-acrylamide]
< 0.1 µM and 0.1 to 1 µM	C=CC(=O)Nc1ccc(S(=O)(=O)N2CCN(c3nc(C)cc(C)n3)CC2)cc1 [N-{4-[4-(4,6-Dimethyl-pyrimidin-2-yl)-piperazine-1-sulfonyl]-phenyl}-acrylamide]
< 0.1 µM and 0.1 to 1 µM	C=CC(=O)Nc1ccc(S(=O)(=O)N2CCN(c3nccc(OC)n3)CC2)cc1 [N-{4-[4-(4-Methoxy-pyrimidin-2-yl)-piperazine-1-sulfonyl]-phenyl}-acrylamide]
< 0.1 µM and 0.1 to 1 µM	C=CC(=O)Nc1ccc(S(=O)(=O)N2CCN(c3cc(C)ccn3)CC2)cc1 [N-{4-[4-(4-Methyl-pyridin-2-yl)-piperazine-1-sulfonyl]-phenyl}-acrylamide]
< 0.1 µM and 0.1 to 1 µM	C=CC(=O)Nc1ccc(S(=O)(=O)N2CCN(c3nccc(C(F)(F)F)n3)CC2)cc1 [N-{4-[4-(4-Trifluoromethyl-pyrimidin-2-yl)-piperazine-1-sulfonyl]-phenyl}-acrylamide]

IC50	SMILES
< 0.1 µM and 0.1 to 1 µM	C=CC(=O)Nc1ccc(S(=O)(=O)N2CCN(c3ccc(Cl)cn3)CC2)cc1 [N-{4-[4-(5-Chloro-pyridin-2-yl)-piperazine-1-sulfonyl]-phenyl}-acrylamide]
< 0.1 µM and 0.1 to 1 µM	C=CC(=O)Nc1ccc(S(=O)(=O)N2CCN(c3ccc(C)cn3)CC2)cc1 [N-{4-[4-(5-Methyl-pyridin-2-yl)-piperazine-1-sulfonyl]-phenyl}-acrylamide]
0.1 to 1 µM and < 0.1 µM	C=CC(=O)Nc1ccc(S(=O)(=O)N2CCN(c3cccc(C)n3)CC2)cc1 [N-{4-[4-(6-Methyl-pyridin-2-yl)-piperazine-1-sulfonyl]-phenyl}-acrylamide]
0.1 to 1 µM and < 0.1 µM	C=CC(=O)Nc1ccc(S(=O)(=O)N2CCN(C(=O)C34CC5CC(CC(C5)C3)C4)CC2)c(F)c1 [N-{4-[4-(Adamantane-1-carbonyl)-piperazine-1-sulfonyl]-3-fluoro-phenyl}-acrylamide]
0.1 to 1 µM and < 0.1 µM	C=CC(=O)Nc1ccc(S(=O)(=O)N2CCN(C(=O)C34CC5CC(CC(C5)C3)C4)CC2)cc1 [N-{4-[4-(Adamantane-1-carbonyl)-piperazine-1-sulfonyl]-phenyl}-acrylamide]
0.1 to 1 µM and < 0.1 µM	C=CC(=O)Nc1ccc(S(=O)(=O)N2CCN(C(=O)N3CCC4CCCCC4C3)CC2)cc1 (stereo not shown) [N-{4-[4-(Octahydro-isoquinoline-2-carbonyl)-piperazine-1-sulfonyl]-phenyl}-acrylamide]
0.1 to 1 µM and < 0.1 µM	C=CC(=O)Nc1ccc(S(=O)(=O)N2CCN(C(=O)N3CCCC4CCCCC43)CC2)cc1 (stereo not shown) [N-{4-[4-(Octahydro-quinoline-1-carbonyl)-piperazine-1-sulfonyl]-phenyl}-acrylamide]
0.1 to 1 µM and < 0.1 µM	C=CC(=O)Nc1ccc(S(=O)(=O)N2CCN(C(=O)N3CCCCC3)CC2)cc1 [N-{4-[4-(Piperidine-1-carbonyl)-piperazine-1-sulfonyl]-phenyl}-acrylamide]
0.1 to 1 µM and < 0.1 µM	C=CC(=O)Nc1ccc(S(=O)(=O)N2CCC(C(=O)N3CCCCC3)CC2)cc1 [N-{4-[4-(Piperidine-1-carbonyl)-piperidine-1-sulfonyl]-phenyl}-acrylamide]
0.1 to 1 µM and < 0.1 µM	C=CC(=O)Nc1ccc(S(=O)(=O)N2CCN(C(=O)N3CCCC3)CC2)cc1 [N-{4-[4-(Pyrrolidine-1-carbonyl)-piperazine-1-sulfonyl]-phenyl}-acrylamide]
0.1 to 1 µM and < 0.1 µM	C=CC(=O)Nc1ccc(S(=O)(=O)N2CCN(C(=O)C3CCOCC3)CC2)cc1 [N-{4-[4-(Tetrahydro-pyran-4-carbonyl)-piperazine-1-sulfonyl]-phenyl}-acrylamide]
1 to 25 µM	C=CC(=O)Nc1ccc(S(=O)(=O)NCc2ccc(-c3ccccc3)nc2)cc1 [N-{4-[(6-Phenyl-pyridin-3-ylmethyl)-sulfamoyl]-phenyl}-acrylamide]
1 to 25 µM	C=CC(=O)Nc1ccc(S(=O)(=O)N(Cc2ccccc2)Cc2ccc(Cl)cc2)cc1 [N-{4-[Benzyl-(4-chloro-benzyl)-sulfamoyl]-phenyl}-acrylamide]
1 to 25 µM	C=CC(=O)Nc1ccc(S(=O)(=O)N(C)Cc2csc(N3CCOCC3)n2)cc1 [N-{4-[Methyl-(2-morpholin-4-yl-thiazol-4-ylmethyl)-sulfamoyl]-phenyl}-acrylamide]
1 to 25 µM	C=CC(=O)Nc1ccc(S(=O)(=O)N(C)Cc2cccc(CN3CCCC3)c2)cc1 [N-{4-[Methyl-(3-pyrrolidin-1-ylmethyl-benzyl)-sulfamoyl]-phenyl}-acrylamide]
0.1 to 1 µM and < 0.1 µM	C=CC(=O)Nc1ccc(S(=O)(=O)N2CCC(N(C)C(=O)OC(C)(C)C)CC2)cc1 [[1-(4-Acryloylamino-benzenesulfonyl)-piperidin-4-yl]-methyl-carbamic acid tert-butyl ester]
1 to 25 µM	C=CC(=O)Nc1ccc(S(=O)(=O)N(C)CCN(C)C(=O)OCc2ccccc2)cc1 [{2-[(4-Acryloylamino-benzenesulfonyl)-methyl-amino]-ethyl}-methyk-carbamic acid benzyl ester]
